Source: US6867225B2, “Thiazole or oxazole derivatives which are useful in the treatment of cardiovascular and related diseases” (SmithKline Beecham Corporation, priority 2001, dated 2005)

What was measured:
Assay in all cases: Transient transfection (transactivation) assay in CV-1 cells, GAL4 chimera, SPAP reporter
Type in all cases: cell-based
hPPAR α = molecular target: T1, hPPAR α (Homo sapiens, UniProt Q07869)
T1 construct: expressed in transfected cells; host or cells: CV-1 cells
T1 sequence (Q07869 239-466 limits assumed): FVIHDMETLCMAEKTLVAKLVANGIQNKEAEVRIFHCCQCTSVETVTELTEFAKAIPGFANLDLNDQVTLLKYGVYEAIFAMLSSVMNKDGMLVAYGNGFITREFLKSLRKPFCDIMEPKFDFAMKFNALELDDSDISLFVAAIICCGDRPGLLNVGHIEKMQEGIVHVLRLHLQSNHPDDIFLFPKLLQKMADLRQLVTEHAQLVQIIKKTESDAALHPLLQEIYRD
From the text: (§1) Compounds were screened for functional potency in transient transfection assays in CV-1 cells for their ability to activate the PPAR subtypes (transactivation assay). A previously established chimeric receptor system was utilized to allow comparison of the relative transcriptional activity of the receptor subtypes on the same target gene and to prevent endogenous receptor activation from complicating the interpretation of results. See, for example, Lehmann, J. M.; Moore, L. B.; Smith-Oliver, Oliver T. A.; Wilkison, W. O.; Willson, T. M.; Kliewer, S. A., An antidiabetic thiazolidinedione is a high affinity ligand for peroxisome proliferator-activated receptor gamma (PPAR gamma), J. Biol. Chem., 1995, 270, 12953-6. The ligand binding domains for murine and human PPAR alpha, PPAR gamma, and PPAR delta were each fused to the yeast transcription factor GAL4 DNA binding domain. CV-1 cells were transiently transfected with expression vectors for the respective PPAR chimera along with a reporter construct containing five copies of the GAL4 DNA binding site driving expression of secreted placental alkaline phosphatase (SPAP) and β-galactosidase. After 16 h, the medium was exchanged to DME medium supplemented with 10% delipidated fetal calf serum and the test compound at the appropriate concentration. After an additional 24 h, cell extracts were prepared and assayed for alkaline phosphatase and β-galactosidase activity. Alkaline phosphatase activity was corrected for transfection efficiency using the β-galactosidase activity as an internal standard (see, for example, Kliewer, S. A., et. al. Cell 83, 813-819 (1995)). Rosiglitazone (BRL 49653) was used as a positive control in the hPPAR gamma assay. The positive control in the hPPAR alpha assays was 2-(2-methyl-3-[3-{3-(4-cyclohexylamino)[6-(4-fluorophenylpiperazin-1-yl)][1,3,5]triazin-2-ylamino}propyl]phenylthio)-2-methylpropionic acid. The positive control for PPAR delta assays was 2-{2-methyl-4-[({4-methyl-2-{-{trifluoromethyl)phenyl]-1,3-thiazol-5-yl}methyl)sulfanyl]phenoxy}acetic acid.

hPPAR γ = molecular target: T2, hPPAR γ (Homo sapiens, UniProt P37231)
T2 construct: expressed in transfected cells; host or cells: CV-1 cells
T2 sequence (P37231 238-503 limits assumed): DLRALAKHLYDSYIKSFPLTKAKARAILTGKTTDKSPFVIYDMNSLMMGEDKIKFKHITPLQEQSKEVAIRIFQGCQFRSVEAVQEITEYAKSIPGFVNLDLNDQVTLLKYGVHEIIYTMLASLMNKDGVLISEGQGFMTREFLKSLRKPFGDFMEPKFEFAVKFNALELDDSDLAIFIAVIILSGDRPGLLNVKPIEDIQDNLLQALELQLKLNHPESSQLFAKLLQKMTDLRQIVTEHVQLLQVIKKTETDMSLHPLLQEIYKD
From the text: as §1

hPPAR δ = molecular target: T3, hPPAR δ (Homo sapiens, UniProt Q03181)
T3 construct: expressed in transfected cells; host or cells: CV-1 cells
T3 sequence (Q03181 211-439 limits assumed): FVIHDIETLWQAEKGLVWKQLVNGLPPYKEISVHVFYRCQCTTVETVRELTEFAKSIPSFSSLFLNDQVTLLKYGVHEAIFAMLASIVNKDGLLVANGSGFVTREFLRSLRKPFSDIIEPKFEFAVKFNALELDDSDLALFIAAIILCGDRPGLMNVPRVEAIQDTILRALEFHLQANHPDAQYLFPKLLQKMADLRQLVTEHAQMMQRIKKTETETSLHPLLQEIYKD
From the text: as §1

`Cc1nc(-c2ccc(C(F)(F)F)cc2)sc1C(=O)NC1CCCc2cc(OC(C)(C)C(=O)O)ccc21` (stereo not drawn) [Example 4] showed an EC50 (hPPAR α) of 10 nM, an EC50 (hPPAR γ) of 2220 nM and an EC50 (hPPAR δ) of 8600 nM.
